Reference: US20260078120A1, “SUBSTITUTED PYRIDOPYRIMIDINONES” (MIRATI THERAPEUTICS, INC., priority 2022, published 2026)

How the values were obtained:
[1] = tested on: T47D (PI3Kα H1047R mutant) cells; test: CellTiter-Glo 2.0 luminescent cell viability assay, 72 hours, T47D cells; assay type: cell-based; conditions: Homo sapiens, T47D, 72 h, T47D (PI3Kα H1047R mutant) cells, CellTiter-Glo, approximately 72 hours; read-out: T47D (H1047R mutant) Viability IC50
How it was run: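 Viability was measured by CellTiter-Glo 2.0 luminescence after approximately 72 h of compound exposure at 37° C. Plating was 1000 cells per well the day before dosing, with ten 1:4 dilutions from a 10 µM top concentration. Values as percent of vehicle were fitted by variable-slope log(inhibitor) regression to give IC50.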

[2] = tested on: SKBR3 (PI3Kα wild type) cells; test: CellTiter-Glo 2.0 luminescent cell viability assay, 72 hours, SKBR3 cells; assay type: cell-based; conditions: Homo sapiens, SK-BR-3, 72 h, SKBR3 (PI3Kα wild type) cells, CellTiter-Glo, approximately 72 hours; read-out: SKBR3 (WT) Viability IC50
How it was run: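 Viability measured via CTG luminescence following roughly 72 hours of compound exposure at 37° C. Dosing used a 10 um starting concentration diluted 1:4 over 10 points; percent-of-vehicle data fitted with a variable-slope four-parameter model for IC50.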

IC50 [1] [µM] | IC50 [2] [µM] | Structure (SMILES)
> 10 | > 10 | Cc1cc(N2CCC(C(=O)O)CC2)c2nc(N3CCCCC3)cc(=O)n2c1 [Example 11-347, 1-(7-methyl-4-oxo-2-(piperidin-1-yl)-4H-pyrido[1,2-a]pyrimidin-9-yl)piperidine-4-carboxylic acid]
0.141 | > 10 | Cc1cc([C@@H](C)Nc2ccccc2C(=O)O)c2nc(N3CCN(c4ccc(C#N)cc4)CC3)c(C#N)c(=O)n2c1 [Example 11-272, (R)-2-((1-(3-cyano-2-(4-(4-cyanophenyl)piperazin-1-yl)-7-methyl-4-oxo-4H-pyrido[1,2-a]pyrimidin-9-yl)ethyl)amino)benzoic acid]
0.439 | > 10 | Cc1cc([C@@H](C)Nc2ccccc2C(=O)O)c2nc(N3CCC[C@@H](C(F)(F)F)C3)c(C#N)c(=O)n2c1 [Example 11-209, 2-(((R)-1-(3-cyano-7-methyl-4-oxo-2-((R)-3-(trifluoromethyl)piperidin-1-yl)-4H-pyrido[1,2-a]pyrimidin-9-yl)ethyl)amino)benzoic acid]
2.44 | > 10 | Cc1cc([C@@H](C)Nc2ccccc2C(=O)O)c2nc(NC[C@@H]3CCOC3)c(C#N)c(=O)n2c1 [Example 11-192, 2-(((R)-1-(3-cyano-7-methyl-4-oxo-2-((((S)-tetrahydrofuran-3-yl)methyl)amino)-4H-pyrido[1,2-a]pyrimidin-9-yl)ethyl)amino)benzoic acid]
1.87 | > 10 | Cc1cc([C@@H](C)Nc2ccccc2C(=O)O)c2nc(N3CCC4(CCC(=O)N4)C3)c(C#N)c(=O)n2c1 (stereo partly drawn) [Example 11-289, 2-(((1R)-1-(3-cyano-7-methyl-4-oxo-2-(2-oxo-1,7-diazaspiro[4.4]nonan-7-yl)-4H-pyrido[1,2-a]pyrimidin-9-yl)ethyl)amino)benzoic acid]
0.146 | > 10 | Cc1cc([C@@H](C)Nc2ccccc2C(=O)O)c2nc(N3CCC(C)CC3)c(C#N)c(=O)n2c1 [Example 11-314, (R)-2-((1-(3-cyano-7-methyl-2-(4-methylpiperidin-1-yl)-4-oxo-4H-pyrido[1,2-a]pyrimidin-9-yl)ethyl)amino)benzoic acid]
4.47 | > 10 | Cc1cc(C(C)Nc2ccccc2C(=O)O)c2nc(N3CCCC(C)(O)C3)cc(=O)n2c1 (stereo not shown) [Example 11-342, 2-((1-(2-(3-hydroxy-3-methylpiperidin-1-yl)-7-methyl-4-oxo-4H-pyrido[1,2-a]pyrimidin-9-yl)ethyl)amino)benzoic acid]
> 10 | > 10 | Cc1cc(C(C)Nc2ccccc2C(=O)O)c2nc(-c3ccn(C)n3)cc(=O)n2c1 (stereo not shown) [Example 11-404, 2-((1-(7-methyl-2-(1-methyl-1H-pyrazol-3-yl)-4-oxo-4H-pyrido[1,2-a]pyrimidin-9-yl)ethyl)amino)benzoic acid]
0.284 | > 10 | Cc1cc([C@@H](C)Nc2ccccc2C(=O)O)c2nc(N3Cc4ccncc4C3)c(C#N)c(=O)n2c1 [Example 11-286, (R)-2-((1-(3-cyano-2-(1,3-dihydro-2H-pyrrolo[3,4-c]pyridin-2-yl)-7-methyl-4-oxo-4H-pyrido[1,2-a]pyrimidin-9-yl)ethyl)amino)benzoic acid]

More lines, now with the values behind:

Structure (SMILES) | IC50 [1] [µM] | IC50 [2] [µM]
Cc1cc([C@@H](C)Nc2ccccc2C(=O)O)c2nc(NC3CCC3)c(C)c(=O)n2c1 [Example 11-99, (R)-2-((1-(2-(cyclobutylamino)-3,7-dimethyl-4-oxo-4H-pyrido[1,2-a]pyrimidin-9-yl)ethyl)amino)benzoic acid] | 0.651 | > 10
Cc1cc([C@@H](C)Nc2ccccc2C(=O)O)c2nc(N3CC(F)(F)C3)c(C)c(=O)n2c1 [Example 11-115, (R)-2-((1-(2-(3,3-difluoroazetidin-1-yl)-3,7-dimethyl-4-oxo-4H-pyrido[1,2-a]pyrimidin-9-yl)ethyl)amino)benzoic acid] | 0.379 | > 10
Cc1cc([C@@H](C)Nc2ccccc2C(=O)O)c2nc(N3CC4C5CCC5C4C3)c(C)c(=O)n2c1 (stereo partly drawn) [Example 11-33, 2-(((1R)-1-(3,7-dimethyl-4-oxo-2-(8-azatricyclo[4.3.0.0^2,5]nonan-8-yl)-4H-pyrido[1,2-a]pyrimidin-9-yl)ethyl)amino)benzoic acid] | 0.31 | > 10
Cc1cc([C@@H](C)Nc2ccccc2C(=O)O)c2nc(N3CCN(c4ccccc4C#N)C[C@H]3C)c(C)c(=O)n2c1 [Example 11-83, 2-(((R)-1-(2-((R)-4-(2-cyanophenyl)-2-methylpiperazin-1-yl)-3,7-dimethyl-4-oxo-4H-pyrido[1,2-a]pyrimidin-9-yl)ethyl)amino)benzoic acid] | 0.157 | > 10
Cc1cc([C@@H](C)Nc2ccccc2C(=O)O)c2nc(C3CCN(C)CC3)c(C)c(=O)n2c1 [Example 11-149, (R)-2-((1-(3,7-dimethyl-2-(1-methylpiperidin-4-yl)-4-oxo-4H-pyrido[1,2-a]pyrimidin-9-yl)ethyl)amino)benzoic acid] | > 10 | > 10
Cc1cc([C@@H](C)Nc2ccccc2C(=O)O)c2nc(N3CC4CC(C3)N4c3ccc(C#N)cc3)c(C#N)c(=O)n2c1 [Example 11-134, 2-(((1R)-1-(3-cyano-2-(6-(4-cyanophenyl)-3,6-diazabicyclo[3.1.1]heptan-3-yl)-7-methyl-4-oxo-4H-pyrido[1,2-a]pyrimidin-9-yl)ethyl)amino)benzoic acid] | 0.605 | > 10
Cc1cc([C@@H](C)Nc2ccccc2C(=O)O)c2nc(N[C@H](C)c3cccnc3)c(C#N)c(=O)n2c1 [Example 11-51, 2-(((R)-1-(3-cyano-7-methyl-4-oxo-2-(((R)-1-(pyridin-3-yl)ethyl)amino)-4H-pyrido[1,2-a]pyrimidin-9-yl)ethyl)amino)benzoic acid] | > 10 | > 10
Cc1cc([C@@H](C)Nc2ccccc2C(=O)O)c2nc(N3CC4CC(C)(C)C4C3)c(C)c(=O)n2c1 (stereo partly drawn) [Example 11-24, 2-(((1R)-1-(2-(6,6-dimethyl-3-azabicyclo[3.2.0]heptan-3-yl)-3,7-dimethyl-4-oxo-4H-pyrido[1,2-a]pyrimidin-9-yl)ethyl)amino)benzoic acid] | 0.123 | > 10
Cc1cc([C@@H](C)Nc2ccccc2C(=O)O)c2nc(N3CCC4(CCO4)CC3)c(C)c(=O)n2c1 [Example 11-56, (R)-2-((1-(3,7-dimethyl-4-oxo-2-(1-oxa-7-azaspiro[3.5]nonan-7-yl)-4H-pyrido[1,2-a]pyrimidin-9-yl)ethyl)amino)benzoic acid] | 0.264 | > 10
Cc1cc([C@@H](C)Nc2ccccc2C(=O)O)c2nc(N3CCN(C4COC4)CC3)c(C#N)c(=O)n2c1 [Example 11-152, (R)-2-((1-(3-cyano-7-methyl-2-(4-(oxetan-3-yl)piperazin-1-yl)-4-oxo-4H-pyrido[1,2-a]pyrimidin-9-yl)ethyl)amino)benzoic acid] | 4.34 | > 10
Cc1cc([C@@H](C)Nc2ccccc2C(=O)O)c2nc(N[C@H](C)C3CC3)c(C)c(=O)n2c1 [Example 11-167, 2-(((R)-1-(2-(((R)-1-cyclopropylethyl)amino)-3,7-dimethyl-4-oxo-4H-pyrido[1,2-a]pyrimidin-9-yl)ethyl)amino)benzoic acid] | 1.18 | > 10
